# Measured values published in PubChem BioAssay AID248 (DTP/NCI, 2004).
# “And” between values parts separate entries of the source, which are not always exact repeats. Equal entries are not always repeated. Inconclusive results and toxic doses are left out.
# System: L1210 leukemia ip in BDF1 mice, survival T/C
# Assay: NCI In Vivo Anticancer Drug Screen. Data for tumor model L1210 Leukemia (intraperitoneal) in B6D2F1 (BDF1) mice
# Conditions: endpoint: mean survival time, higher = longer survival
# Outline: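 Survival endpoint. Drug-treated group vs vehicle group, expressed as T divided by C. Tumor passaged by transplantation.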
# [1] = dose: 100.0 mg/kg/injection, schedule: Q04DX003 (ip), vehicle: saline with Tween-80
# [2] = dose: 200.0 mg/kg/injection, schedule: Q04DX003 (ip), vehicle: saline with Tween-80
# [3] = dose: 400.0 mg/kg/injection, schedule: Q04DX003 (ip), vehicle: saline with Tween-80
# [4] = dose: 50.0 mg/kg/injection, schedule: Q01DX009 (ip), vehicle: Klucel (hydroxypropylcellulose) (HPC)
# [5] = dose: 100.0 mg/kg/injection, schedule: Q01DX009 (ip), vehicle: Klucel (hydroxypropylcellulose) (HPC)
# [6] = dose: 100.0 mg/kg/injection, schedule: Q04DX003 (ip), vehicle: Klucel (hydroxypropylcellulose) (HPC)
# [7] = dose: 200.0 mg/kg/injection, schedule: Q01DX009 (ip), vehicle: Klucel (hydroxypropylcellulose) (HPC)
# [8] = dose: 200.0 mg/kg/injection, schedule: Q04DX003 (ip), vehicle: Klucel (hydroxypropylcellulose) (HPC)
# [9] = dose: 100.0 mg/kg/injection, schedule: Q04DX002 (ip), vehicle: Klucel (hydroxypropylcellulose) (HPC)
# [10] = dose: 200.0 mg/kg/injection, schedule: Q04DX002 (ip), vehicle: Klucel (hydroxypropylcellulose) (HPC)
# [11] = dose: 100.0 mg/kg/injection, schedule: Q01DX009 (ip), vehicle: saline with Tween-80
# [12] = dose: 200.0 mg/kg/injection, schedule: Q01DX009 (ip), vehicle: saline with Tween-80
# [13] = dose: 400.0 mg/kg/injection, schedule: Q01DX009 (ip), vehicle: saline with Tween-80
# [14] = dose: 400.0 mg/kg/injection, schedule: Q04DX002 (ip), vehicle: Klucel (hydroxypropylcellulose) (HPC)
# [15] = dose: 400.0 mg/kg/injection, schedule: Q04DX003 (ip), vehicle: Klucel (hydroxypropylcellulose) (HPC)
# [16] = dose: 50.0 mg/kg/injection, schedule: Q01DX001 (ip), vehicle: saline
# [17] = dose: 100.0 mg/kg/injection, schedule: Q01DX001 (ip), vehicle: saline
# [18] = dose: 200.0 mg/kg/injection, schedule: Q01DX001 (ip), vehicle: saline
# [19] = dose: 50.0 mg/kg/injection, schedule: Q04DX003 (ip), vehicle: Klucel (hydroxypropylcellulose) (HPC)
# [20] = dose: 100.0 mg/kg/injection, schedule: Q01DX001 (ip), vehicle: Klucel (hydroxypropylcellulose) (HPC)
# [21] = dose: 200.0 mg/kg/injection, schedule: Q01DX001 (ip), vehicle: Klucel (hydroxypropylcellulose) (HPC)
# [22] = dose: 400.0 mg/kg/injection, schedule: Q01DX001 (ip), vehicle: Klucel (hydroxypropylcellulose) (HPC)
# [23] = dose: 400.0 mg/kg/injection, schedule: Q01DX001 (ip), vehicle: saline
smiles,measurement,setting,value
CN(C1CCCC1)C1CCCC1,T/C,"dose: 10.0 mg/kg/injection, schedule: Q01DX009 (ip), vehicle: Klucel (hydroxypropylcellulose) (HPC)",106 % of control
same,T/C,"dose: 10.0 mg/kg/injection, schedule: Q04DX003 (ip), vehicle: Klucel (hydroxypropylcellulose) (HPC)",102 % of control
same,T/C,"dose: 20.0 mg/kg/injection, schedule: Q01DX009 (ip), vehicle: Klucel (hydroxypropylcellulose) (HPC)",104 % of control
same,T/C,"dose: 20.0 mg/kg/injection, schedule: Q04DX003 (ip), vehicle: Klucel (hydroxypropylcellulose) (HPC)",94 % of control
same,T/C,"dose: 40.0 mg/kg/injection, schedule: Q01DX009 (ip), vehicle: Klucel (hydroxypropylcellulose) (HPC)",102 % of control
same,T/C,"dose: 40.0 mg/kg/injection, schedule: Q04DX003 (ip), vehicle: Klucel (hydroxypropylcellulose) (HPC)",96 % of control
CC1=CC(=O)C(Sc2ccc(C)cc2)=CC1=O,T/C,"dose: 75.0 mg/kg/injection, schedule: Q01DX001 (ip), vehicle: other",98 % of control
same,T/C,"dose: 150.0 mg/kg/injection, schedule: Q01DX001 (ip), vehicle: other",93 % of control
CCCCOC(=O)c1cccnc1,T/C,"dose: 50.0 mg/kg/injection, schedule: Q04DX003 (ip), vehicle: saline with Tween-80",97 % of control
same,T/C,[1],94 % of control and 102 % of control
same,T/C,[2],103 % of control
same,T/C,[3],91 % of control
N#Cc1ccccc1.N#Cc1ccccc1.[Cl][Pd][Cl],T/C,[4],95 % of control
same,T/C,[5],95 % of control
same,T/C,[6],94 % of control
same,T/C,[7],101 % of control
same,T/C,[8],102 % of control
Cc1c(C(N)=O)no[n+]1[O-],T/C,[9],87 % of control
same,T/C,[10],109 % of control
[Cl][Hg][c]1ccc2ccccc2c1,T/C,"dose: 6.25 mg/kg/injection, schedule: Q01DX005 (ip), vehicle: saline with Tween-80",104 % of control
same,T/C,"dose: 12.5 mg/kg/injection, schedule: Q01DX005 (ip), vehicle: saline with Tween-80",97 % of control
same,T/C,"dose: 12.5 mg/kg/injection, schedule: Q01DX009 (ip), vehicle: saline with Tween-80",92 % of control
same,T/C,"dose: 25.0 mg/kg/injection, schedule: Q01DX005 (ip), vehicle: saline with Tween-80",104 % of control
CC(=O)c1ccc2c3c(cccc13)CC2,T/C,[11],102 % of control
same,T/C,[1],88 % of control
same,T/C,[12],98 % of control
same,T/C,[2],104 % of control
same,T/C,[13],101 % of control
same,T/C,[3],97 % of control
O=[N+]([O-])c1cccc(C(O)CC(O)(C(F)(F)F)C(F)(F)F)c1 (stereo not drawn),T/C,[11],98 % of control
same,T/C,[1],95 % of control
same,T/C,[12],101 % of control
same,T/C,[2],97 % of control
same,T/C,[13],95 % of control
same,T/C,[3],103 % of control
Cc1cn(C2CC(O)C(CO)O2)c(=O)[nH]c1=O (stereo not drawn),T/C,"dose: 50.0 mg/kg/injection, schedule: Q03HX024 (ip), vehicle: saline",100 % of control
same,T/C,"dose: 100.0 mg/kg/injection, schedule: Q03HX024 (ip), vehicle: saline",100 % of control
same,T/C,"dose: 200.0 mg/kg/injection, schedule: Q03HX024 (ip), vehicle: saline",98 % of control
same,T/C,"dose: 400.0 mg/kg/injection, schedule: Q03HX024 (ip), vehicle: saline",100 % of control
O=C1CCCCCCCCCCCCCCO1,T/C,[9],96 % of control
same,T/C,[10],90 % of control
same,T/C,[14],93 % of control
Cc1ccc(NC(=O)c2ccccc2-c2ccccc2C(=O)Nc2ccc(C)cc2)cc1,T/C,"dose: 100.0 mg/kg/injection, schedule: Q01DX001 (ip), vehicle: other",91 % of control
O=C(Nc1cccc(Cl)c1Cl)Oc1ccc(F)cc1Cl,T/C,[5],108 % of control
same,T/C,[7],108 % of control
same,T/C,"dose: 400.0 mg/kg/injection, schedule: Q01DX009 (ip), vehicle: Klucel (hydroxypropylcellulose) (HPC)",113 % of control
O=[N+]([O-])c1cc([N+](=O)[O-])c2nn(-c3ccccc3)[n+]([O-])c2c1,T/C,[6],101 % of control
same,T/C,[8],97 % of control
same,T/C,[15],98 % of control
CCCCNc1nc(N)nc(N)c1N=Nc1ccc(Cl)cc1,T/C,"dose: 100.0 mg/kg/injection, schedule: Q01DX001 (ip), vehicle: carboxymethylcellulose (CMC)",101 % of control
same,T/C,"dose: 200.0 mg/kg/injection, schedule: Q01DX001 (ip), vehicle: carboxymethylcellulose (CMC)",96 % of control
same,T/C,"dose: 400.0 mg/kg/injection, schedule: Q01DX001 (ip), vehicle: carboxymethylcellulose (CMC)",98 % of control
CO/C(Cc1cc(O)cc(O)c1)=N\N,T/C,[1],93 % of control
same,T/C,[2],92 % of control
same,T/C,[3],101 % of control
COc1ccc(OC)c(-c2csc(=O)s2)c1,T/C,"dose: 50.0 mg/kg/injection, schedule: Q04DX002 (ip), vehicle: Klucel (hydroxypropylcellulose) (HPC)",97 % of control
same,T/C,[9],111 % of control
COC(=O)C1(C(=O)OC)NNC(=O)c2cc(Br)ccc2N1,T/C,[16],101 % of control
same,T/C,[17],89 % of control
same,T/C,[18],95 % of control
CCCC(=O)OCC1OC(n2ccc(N)nc2=O)C(O)C1OC(=O)CCC (stereo not drawn),T/C,"dose: 60.0 mg/kg/injection, schedule: Q01DX005 (ip), vehicle: Klucel (hydroxypropylcellulose) (HPC)",183 % of control
same,T/C,"dose: 90.0 mg/kg/injection, schedule: Q01DX005 (ip), vehicle: Klucel (hydroxypropylcellulose) (HPC)",152 % of control
same,T/C,"dose: 134.0 mg/kg/injection, schedule: Q01DX005 (ip), vehicle: Klucel (hydroxypropylcellulose) (HPC)",158 % of control
same,T/C,"dose: 200.0 mg/kg/injection, schedule: Q01DX005 (ip), vehicle: Klucel (hydroxypropylcellulose) (HPC)",162 % of control and 170 % of control
O=S(C/C=C/CS(=O)c1ccccc1)c1ccccc1 (stereo not drawn),T/C,[9],105 % of control
same,T/C,[10],116 % of control
same,T/C,[14],103 % of control
CC(=O)Oc1c2c(c(CC=C(C)C)c3c1C(=O)C1=CC4CC5C(C)(C)OC(C/C=C(/C)C(=O)O)(C4=O)C15O3)OC(C)(CCC=C(C)C)C=C2 (stereo not drawn),T/C,[4],109 % of control
same,T/C,[19],103 % of control
same,T/C,[20],106 % of control
same,T/C,[5],91 % of control
same,T/C,[6],97 % of control
same,T/C,[21],114 % of control
same,T/C,[8],105 % of control
same,T/C,[22],110 % of control
CCOC(=O)CCCN1CCC=C(C#N)C1,T/C,"dose: 75.0 mg/kg/injection, schedule: Q01DX001 (ip), vehicle: saline",102 % of control
same,T/C,"dose: 300.0 mg/kg/injection, schedule: Q01DX001 (ip), vehicle: saline",107 % of control
O=c1c(O)c(-c2ccc(-c3oc4ccccc4c(=O)c3O)cc2)oc2ccccc12,T/C,[16],97 % of control
same,T/C,[17],89 % of control
same,T/C,[18],91 % of control
same,T/C,[23],101 % of control
CC(=C=CC(c1ccccc1)(c1ccccc1)c1ccccc1)CC(c1ccccc1)(c1ccccc1)c1ccccc1,T/C,[6],96 % of control
same,T/C,[8],95 % of control
same,T/C,[15],95 % of control
CCCC(C)C(C#N)c1ccccc1 (stereo not drawn),T/C,"dose: 25.0 mg/kg/injection, schedule: Q01DX009 (ip), vehicle: Klucel (hydroxypropylcellulose) (HPC)",101 % of control and 103 % of control
same,T/C,"dose: 25.0 mg/kg/injection, schedule: Q04DX003 (ip), vehicle: Klucel (hydroxypropylcellulose) (HPC)",95 % of control
same,T/C,[4],93 % of control and 98 % of control and 90 % of control
same,T/C,[19],88 % of control
same,T/C,[6],89 % of control
CC(C)(C)OC(=O)CCSC(C)(C)C,T/C,[20],96 % of control
same,T/C,[21],96 % of control
same,T/C,[22],96 % of control
CC(C)(C)c1cc(/C=C/C(=O)O)cc(C(C)(C)C)c1O,T/C,[20],107 % of control
same,T/C,[21],96 % of control
same,T/C,[22],90 % of control
NC(=O)N1CCCCC1,T/C,[17],102 % of control
same,T/C,[18],98 % of control
same,T/C,[23],102 % of control
